Assay results as given in US10702512B2, “Treatment of debilitating fatigue” (A. CARLSSON RESEARCH AB, priority 2015, dated 2020).

How the values were obtained:
Format in all cases: in vivo, human
[1] = test system: ME/CFS patients; test: Trail making test B (TMT B)
Experimental: Next, patients were evaluated using a neuropsychological test. 61 patients were included in a neuropsychological examination. All subjects were tested once in connection with the randomization with the BNIS neuropsychological screening test. 20-30 minutes was required for this test. With the purpose of measuring the cognitive effects of the OSU6162 treatment six more tests were distributed at a first occasion before the initiation of treatment and at a second occasion after the treatment was completed. These tests required 20 minutes each. All tests were performed by a neuropsychologist. […] The subject follows a mental track and the test requires the ability to handle more than one stimulus at a time, as well as flexibility in shifting between different activities. It has a high sensitivity for brain dysfunction and is regarded to be related to prefrontal functioning.

[2] = test system: ME/CFS patients; test: Clinical Global Impression of Change (CGI-C), phase II clinical study; conditions: for patients exhibiting improved CGI-C values: entire population
Experimental: As used herein “Clinical Global Impression of Change” (CGI-C) (also known as Clinical Global Impression—Improvement (CGI-I)) scale is a 7 point scale that requires the clinician to assess how much the patient's illness has improved or worsened relative to a baseline state at the beginning of the intervention. […] Circular coated tablets for oral use of 15 mg and matching placebos was used. The tablets were administered by research nurses at the study site. The tablets were circular coated tablets for oral use containing 15 mg OSU6162. Matching placebos were used. The start dose was 15 mg OSU6162 twice daily (before breakfast and lunch) during 1 week with dose increase up to 30 mg twice daily during the following week. Efficacy was measured according to ratings using the self-assessment questionnaire for mental fatigue and related symptoms (MFS) after neurological disorders and injuries (Johansson et al, supra). Another primary endpoint was the result of the rating by the Clinical Global Impression of Change (Guy, supra), which rating was made by the doctor in charge of the patient. CGI-C scores range from 1 (very much improved) through to 7 (very much worse). Clinical Global Impression of Change (CGI-C) was evaluated by the clinician for each patient.

[3] = OSU6162 concentration in blood plasma
Experimental: Next, the concentration of OSU6162 in blood plasma was measured and analyzed for correlations with time and changes in FF, MFS and BDI score.
Plasma concentrations of OSU6162 were measured in 30 patients who received placebo and in 31 patients who received OSU6162. The blood sample was drawn in the morning after the tablet was taken—the time of the tablet intake was noted and reported to the clinic by the patient. The blood sample was taken at minimum 65 and at maximum 180 minutes after tablet intake. The mean time was 123 minutes and the standard deviation 33 minutes.
In order to analyze the relationship between the treatment outcome and the concentration of OSU6162 in blood plasma, OSU6162 concentrations in patients measured after week 2 were plotted against change in FF, MFS and BDI score (FIGS. 6, 7 and 8).

[4] = test system: ME/CFS patients; test: Barrow Neurological Institute Screen for Higher Cerebral Functions (BNIS)
Experimental: Next, patients were evaluated using a neuropsychological test. 61 patients were included in a neuropsychological examination. All subjects were tested once in connection with the randomization with the BNIS neuropsychological screening test. 20-30 minutes was required for this test. With the purpose of measuring the cognitive effects of the OSU6162 treatment six more tests were distributed at a first occasion before the initiation of treatment and at a second occasion after the treatment was completed. These tests required 20 minutes each. All tests were performed by a neuropsychologist. Barrow Neurological Institute Screen for Higher Cerebral Functions (BNIS) is a screening test constructed to quantitatively and qualitatively reflect the outcome of a range of higher cerebral functions. The three initial items are pre-screening items where arousal level, basic communication skills and level of cooperation are assessed (a maximum score of 9) to decide whether the status of the patients allows further testing. At least two points in each item are required. The BNIS contains the following domains: speech and language (maximum score 15), orientation (maximum score 3), attention/concentration (maximum score 3), visual and visual spatial problem solving (maximum score 8), learning and memory (maximum score 7), affect (maximum score 4) and awareness vs. performance (maximum score 1). The test provides a total score=50 of overall cognitive functioning and subscale scores. A score less than 47 indicates brain dysfunction.

[5] = test system: ME/CFS patients; test: Trail making test A (TMT A)
Experimental: Next, patients were evaluated using a neuropsychological test. 61 patients were included in a neuropsychological examination. All subjects were tested once in connection with the randomization with the BNIS neuropsychological screening test. 20-30 minutes was required for this test. With the purpose of measuring the cognitive effects of the OSU6162 treatment six more tests were distributed at a first occasion before the initiation of treatment and at a second occasion after the treatment was completed. These tests required 20 minutes each. All tests were performed by a neuropsychologist. Trail making test A (TMT A) requires the subject to draw a line as quickly as possible connecting a series of numbers. It is a time-based measure of attention, where time and quality are noted and requires motor effectiveness, visual scanning, speed and flexibility. The test has a high sensitivity for brain dysfunction.

[6] = OSU6162 group, tested once in connection with randomization

Q: Which results are given for `CCCN1CCC[C@@H](c2cccc(S(C)(=O)=O)c2)C1.Cl` [OSU6162, (3S)-3-[3-(methylsulfonyl)-phenyl]-1-propylpiperidine hydrochloride]?
A: TMT B, max ([1]; after treatment): 145 s; TMT B, mean ([1]; after treatment): 61.2; TMT B, median ([1]; after treatment): 29; TMT B, min ([1]; after treatment): 31; TMT B difference between OSU6162 and placebo groups ([1]; before and after treatment): No significant differences; TMT B, max ([1]; before treatment): 134 s; TMT B, mean ([1]; before treatment): 71.7; TMT B, median ([1]; before treatment): 32; TMT B, min ([1]; before treatment): 44; TMT B, Difference ([1]; before vs after treatment): 10; patients exhibiting improved CGI-C values ([2]; after one week of treatment (15 mg twice daily, oral), 13 of 30): 43%; patients exhibiting improved CGI-C values ([2]; after two weeks of treatment (30 mg twice daily in week 2, oral), 17 of 30): 57%; difference in CGI-C between treatment groups (OSU6162 vs placebo) ([2]; entire patient population): no significant difference; CGI-C improvement vs placebo ([2]; subgroup receiving concomitant antidepressant treatment, after one week, Mann-Whitney U-test p=0.0524): clear tendency after one week for a greater improvement; correlation between plasma concentration and time between tablet intake and blood sampling ([3]; Spearman rank correlation, sampling 65-180 minutes after tablet intake): No significant correlation; therapeutic optimum plasma concentration ([3]; plasma after week 2 plotted against change in FF, MFS and BDI score, above 0.7 μM no further improvement): 0.3 to 0.7 µM; BNIS total score, max [4, 6]: 50; BNIS total score, mean [4, 6]: 45.2; BNIS total score, min [4, 6]: 33; BNIS difference between OSU6162 and placebo groups ([4]; in vivo): No significant difference; TMT A, max ([5]; after treatment): 48 s; TMT A, mean ([5]; after treatment): 28.5; TMT A, median ([5]; after treatment): 29; TMT A, min ([5]; after treatment): 15; TMT A difference between OSU6162 and placebo groups ([5]; before and after treatment): No significant differences; TMT A, max ([5]; before treatment): 57 s; TMT A, mean ([5]; before treatment): 33.4; TMT A, median ([5]; before treatment): 32; TMT A, min ([5]; before treatment): 16; TMT A, Difference ([5]; before vs after treatment): 10
